In patent publication US20130052646A1, “POSITIVE AND NEGATIVE […] FOR USE IN TH[…]” (Mascoma Corporation, priority 2009, published 2013):

What was measured:
Format in all cases: cell-based, Clostridium thermocellum
C. thermocellum [1] = assay: Plating on media containing 5-FOA (pyrF negative selection); settings: for colony survival after plating on 5-FOA: rich media containing 500 μg of 5-FOA; for growth on media containing 5-FOA: FIG. 8
Method: Plasmid pMU482 was transformed into the wild type C. thermocellum strain 1313 and selected on a rich media containing thyamphenicol (at the concentration of 6 μg/ml) to select for cells containing the cat marker encoded on the plasmid. A schematic displaying the creation of the knockout vector is depicted in FIG. 2. Several colonies that resulted from the selection scheme were selected for PCR analysis to confirm that the plasmid had been transformed into the cells. A transformed colony was diluted into liquid, rich medium containing thyamphenicol at the concentration of 6 μg/ml and grown overnight. A culture containing pMU102 (control plasmid) was also grown similarly. The next day, each culture was serially diluted by ten fold (up to 10^−3) using fresh, rich media and 100 μL of the undiluted culture. Each of the dilutions were plated on rich media containing 500 μg of 5-FOA. A schematic of this plating strategy is depicted in FIG. 3.
The plasmid-free C. thermocellum ΔpyrF strain created above was tested to confirm that negative selection could be appropriately applied. Cells were grown and plated using media containing the toxic analog 5-fluoroorotic acid (5-FOA). The protein product of the pyrF gene converts 5-FOA into a toxic compound. Thus, the C. thermocellum ΔpyrF strain should be resistant to 5-FOA, but the wild type or a complemented strain should be susceptible to 5-FOA and unable to grow.

C. thermocellum [2] = assay: Plating on 8-azahypoxanthine (hpt negative selection, complementation); settings: 500 ug/ml 8-AzaH, FIG. 26
Method: Plasmid pMU1657 was transformed into the wild type C. thermocellum strain 1313 and selected for on chloramphenicol. Several colonies were selected and the transformed plasmid was verified by PCR. A colony was diluted into C. thermocellum growth medium and grown overnight. The following morning the dilution closest to an O.D of ˜1.0 was serially diluted and plated on defined medium containing 500 ug/ml 8-azahypoxanthine. Two days later, colonies were observed on the dilution representing 10^−3. Six colonies were selected and PCR screens were performed to verify that the hpt gene had been deleted from the chromosome. After PCR amplification, the expected size of the wild type product having no deletion is 3380 bp and the expected size of the hpt deletion is 2820 bp. […] The colonies were subsequently screened by PCR amplification to confirm that the plasmid had been cured (or lost). In FIG. 25, lane (P) represents the plasmid control that is 3750 bp in size. Colonies that have lost the plasmid would have no product migrating in the lane. The lack of product in lanes 1-6 representing the six different colonies confirm that the plasmid had been cured.
To provide stronger support for this conclusion, the knockout plasmid was reintroduced to look for complementation of the phenotype. […]

C. thermocellum [3] = assay: Plating in the presence of FUDR (tdk negative selection); settings: FIG. 18
Method: To this end, the C. thermocellum pyrF::tdk strain and the control C. thermocellum ΔpyrF strain were plated in the presence of 10 μg/ml FUDR. For each culture, a 10 dilution was used for the plating.

C. thermocellum [4] = assay: Plating of cured Δhpt strain on thiamphenicol; settings: plasmid-cured Δhpt strain; after 5 days
Method: To verify this, the new strain was grown up overnight and plated on thiamphenicol.

C. thermocellum [5] = assay: Growth in rich medium with uracil supplementation; settings: ΔpyrF strain; rich medium with additional 40 μg/ml uracil; 55° C.
Method: Growth rate measurements were performed in a 200 μl volume in a 96-well plate at 55° C. The optical density at 600 nm was read by a Powerwave XS platereader customized by the manufacturer to incubate up to 68° C. (BioTek). The plates were shaken continuously and read at three minute intervals. Each sample was measured in quadruplicate. The specific growth rate (0 was determined by measuring the slope of the natural log-transformed OD readings. A two hour sliding window of OD readings between 0.08 and 1.00 were used for determination of maximum rate μmax. In all cases, the R-squared value was greater than 0.99.
The growth of the pta::gapDHp-cat strain was compared to the wt and ΔpyrF strains in rich medium, with and without uracil supplementation. […] End product analysis was performed on batch fermentations started at pH 7.0 with 5 g/l cellobiose as the primary carbon source under anaerobic conditions with a nitrogen atmosphere and 80 ml working volume. After 48 hours of fermentation the wt and ΔpyrF strain produced about 1 g/l of acetic acid whereas the acetic acid production of the pta::gapDHp-cat was indistinguishable from background levels (average 0.03 g/l).

O=C(O)c1[nH]c(=O)[nH]c(=O)c1F [5-FOA, 5-fluoroorotic acid]
colony survival after plating on 5-FOA (C. thermocellum [1]; colonies containing wild-type pyrF): did not survive
colony survival after plating on 5-FOA (C. thermocellum [1]; colonies that contained the pyrF disruption): visible
growth on media containing 5-FOA (C. thermocellum [1]; plasmid-free ΔpyrF strain (also with control plasmid pMU102)): able to grow
growth on media containing 5-FOA (C. thermocellum [1]; ΔpyrF strain transformed with complementing plasmid pMU612 expressing pyrF): no growth

O=c1[nH]cnc2nn[nH]c12 [8-azahypoxanthine]
sensitivity to 8-azahypoxanthine (C. thermocellum [2]; Δhpt strain containing complementing plasmid pMU1657): sensitivity comparable to wild type levels
sensitivity to 8-azahypoxanthine (C. thermocellum [2]; Δhpt strain): completely insensitive

O=c1[nH]c(=O)n([C@H]2C[C@H](O)[C@@H](CO)O2)cc1F [FUDR, fluorodeoxyuridine]
growth in the presence of FUDR (C. thermocellum [3]; control ΔpyrF strain without tdk, 10 μg/ml FUDR): survived
growth in the presence of FUDR (C. thermocellum [3]; pyrF::tdk strain, 10 μg/ml FUDR with addition of thymidine): did grow
growth in the presence of FUDR (C. thermocellum [3]; pyrF::tdk strain, 10 μg/ml FUDR): did not grow

CS(=O)(=O)c1ccc([C@@H](O)[C@@H](CO)NC(=O)C(Cl)Cl)cc1 [thiamphenicol]
resistant colonies on thiamphenicol (C. thermocellum [4]): no thiamphenicol resistant colonies were observed

O=c1cc[nH]c(=O)[nH]1 [uracil]
effect of uracil supplementation on growth (C. thermocellum [5]): eliminated the growth defect
